{"source": "paper PMC8157262", "about": "(Pharmaceutics, 2021)", "key": {"[1]": {"conditions": "cited from earlier work"}, "[2]": {"assay": "Pharmacokinetics after intravenous administration of tofacitinib and/or voriconazole to rats", "conditions": "Sprague-Dawley, rat, 10 mg/kg", "protocol": "In all cases, the treatment was administered intravenously for 1 min via the jugular vein (total injection volume of 4 mL/kg). Blood samples (approximately 0.12 mL for single drug administration and 0.22 mL for co-administration of both drugs) were taken from the carotid artery at 0 (before the start of injection), 1 (right after injection), 5, 15, 30, 60, 120, 180, 240, 360, 480, 600 and/or 720 min after the start of injection. […] Urine samples, collected for 24 h following injection, and gastrointestinal tract (including its contents and feces) samples, collected 24 h after injection, were prepared in accordance with previously reported methods."}, "in vivo": {"assay": "in vivo", "conditions": "Sprague-Dawley, rat; for bioavailability: F"}, "[3]": {"tested_on": "rat intestinal microsomes"}, "[4]": {"tested_on": "Candida albicans-infected mice", "conditions": "long-term administration to Candida albicans-infected mice; cited from earlier work"}, "[5]": {"assay": "Protein binding of tofacitinib to fresh rat plasma (equilibrium dialysis)", "format": "in vitro ADME", "conditions": "n = 5, read-out: Protein binding (bound fraction) (converted)", "protocol": "Briefly, plasma was dialyzed against isotonic phosphate buffer (pH 7.4) in a 1 mL dialysis cell (Spectrum Medical Industries, Los Angeles, CA, USA)."}, "[6]": {"conditions": "oral, healthy male adults; cited from earlier work"}, "[7]": {"conditions": "Sprague-Dawley, rat, in vivo"}, "rat hepatic microsomes": {"tested_on": "rat hepatic microsomes", "conditions": "for Vmax for the elimination of tofacitinib: liver microsomes, n = 3"}, "in vitro [8]": {"assay": "in vitro", "conditions": "rat, intestinal microsomes"}, "in vitro [9]": {"assay": "in vitro", "conditions": "rat, liver microsomes"}, "α-glycosidase": {"tested_on": "α-glycosidase", "conditions": "interaction with acarbose; cited from earlier work"}, "[10]": {"tested_on": "human carbonic anhydrase 1", "conditions": "interaction with acetazolamide; cited from earlier work"}, "[11]": {"conditions": "rat intestinal microsomes, 20 μM voriconazole"}, "[12]": {"conditions": "rat hepatic microsomes, 20 μM voriconazole"}, "[13]": {"conditions": "pH 7.4, with voriconazole 20 μM"}}, "note": "Where two headings read alike, the source gives them in different places.", "data": [{"smiles": "C[C@@H]1CCN(C(=O)CC#N)C[C@@H]1N(C)c1ncnc2[nH]ccc12", "note": "[tofacitinib, Tofacitinib]", "values": [{"measurement": "Volume of distribution", "setting": "[1]; tofacitinib oral, healthy subjects", "result": 1.24, "unit": "L/kg"}, {"measurement": "Plasma protein binding", "setting": "[1]; tofacitinib, healthy subjects", "result": "approximately 40%"}, {"measurement": "Absolute oral bioavailability (F)", "setting": "[1]; tofacitinib, humans", "result": "approximately 74%"}, {"measurement": "Fraction processed by CYP2C19", "setting": "[1]; tofacitinib, humans", "result": 20, "unit": "%"}, {"measurement": "Fraction processed by CYP3A4", "setting": "[1]; tofacitinib, humans", "result": "about 50%"}, {"measurement": "AUC", "setting": "[2]; in vivo", "result": 12300, "unit": "ng·h/mL"}, {"measurement": "CL renal", "setting": "[2]; in vivo", "result": "3.61 ± 0.829", "unit": "mL/min/kg"}, {"measurement": "AUC", "setting": "[2]; iv, AUC", "result": 4630, "unit": "ng·h/mL"}, {"measurement": "CL renal", "setting": "[2]; iv, CLR", "result": "1.44 ± 0.678", "unit": "mL/min/kg"}, {"measurement": "Vd", "setting": "[2]; iv, Vss", "result": "1.21 ± 0.489", "unit": "L/kg"}, {"measurement": "bioavailability", "setting": "in vivo", "result": 71.2, "unit": "%"}, {"measurement": "CL renal", "setting": "in vivo; po, 20 mg/kg, CLR", "result": "5.36 ± 1.35", "unit": "mL/min/kg"}, {"measurement": "Tmax", "setting": "in vivo; po, 20 mg/kg", "result": 1.46, "unit": "h"}, {"measurement": "Vmax for the elimination of tofacitinib", "setting": "[3]; intestinal microsomes, with 20 μM VCZ, n = 3", "result": "212 ± 27.0", "unit": "pmol/min/mg protein"}, {"measurement": "Vmax for the elimination of tofacitinib", "setting": "[3]; intestinal microsomes, without VCZ, n = 3", "result": "380 ± 86.1", "unit": "pmol/min/mg protein"}, {"measurement": "CLint of tofacitinib slower in the presence of voriconazole", "setting": "[3]; [11]", "result": 21.1, "unit": "%"}, {"measurement": "Vmax of tofacitinib elimination slower in the presence of voriconazole", "setting": "[3]; [11]", "result": 44.2, "unit": "%"}, {"measurement": "Survival rate of infected mice", "setting": "[4]", "result": "significantly reduce their survival rate"}, {"measurement": "fraction unbound at 8 h, 5 μg/mL", "setting": "[5]; pH 7.4, tofacitinib 5 μg/mL in the absence of voriconazole", "result": 0.621}, {"measurement": "fraction unbound at 8 h, 5 μg/mL", "setting": "[5]; pH 7.4, tofacitinib 5 μg/mL in the presence of voriconazole 5 μg/mL", "result": 0.639}, {"measurement": "AUC of tofacitinib higher when co-administered with fluconazole", "setting": "[6]", "result": 79, "unit": "%"}, {"measurement": "AUC of tofacitinib higher when combined with ketoconazole", "setting": "[6]", "result": 103, "unit": "%"}, {"measurement": "F", "setting": "[7]", "result": 72.4, "unit": "%"}, {"measurement": "'true' fraction of the oral dose unabsorbed (Funabs)", "setting": "[7]; po", "result": "approximately 0.162%"}, {"measurement": "Fraction of the oral dose absorbed", "setting": "[7]; po", "result": "more than 99%"}, {"measurement": "CLR", "setting": "[7]; po, 20 mg/kg", "result": "0.310 ± 0.117", "unit": "mL/min/kg"}, {"measurement": "Vmax for the elimination of tofacitinib", "setting": "rat hepatic microsomes; with 20 μM VCZ", "result": "1184 ± 470", "unit": "pmol/min/mg protein"}, {"measurement": "Vmax for the elimination of tofacitinib", "setting": "rat hepatic microsomes; without VCZ", "result": "2895 ± 319", "unit": "pmol/min/mg protein"}, {"measurement": "CLint of tofacitinib slower in the presence of voriconazole", "setting": "rat hepatic microsomes; [12]", "result": 65.5, "unit": "%"}, {"measurement": "Vmax of tofacitinib elimination slower in the presence of voriconazole", "setting": "rat hepatic microsomes; [12]", "result": 59.1, "unit": "%"}, {"measurement": "Km", "setting": "in vitro [8]; pH 7.4", "result": "43.1 ± 11.7", "unit": "µM"}, {"measurement": "microsomal CLint", "setting": "in vitro [8]; pH 7.4", "result": "8.94 ± 1", "unit": "µL/min/mg"}, {"measurement": "Km", "setting": "in vitro [8]; [13]", "result": "30.1 ± 3.29", "unit": "µM"}, {"measurement": "microsomal CLint", "setting": "in vitro [8]; [13]", "result": "7.05 ± 0.12", "unit": "µL/min/mg"}, {"measurement": "Km", "setting": "in vitro [9]; pH 7.4", "result": "124 ± 13.7", "unit": "µM"}, {"measurement": "microsomal CLint", "setting": "in vitro [9]; pH 7.4", "result": "23.3 ± 0.689", "unit": "µL/min/mg"}, {"measurement": "Km", "setting": "in vitro [9]; [13]", "result": "147 ± 43.4", "unit": "µM"}, {"measurement": "microsomal CLint", "setting": "in vitro [9]; [13]", "result": "8.05 ± 2.01", "unit": "µL/min/mg"}]}, {"smiles": "C[C@@H](c1ncncc1F)[C@](O)(Cn1cncn1)c1ccc(F)cc1F", "note": "[voriconazole, Voriconazole]", "values": [{"measurement": "F", "setting": "[1]; human, in vivo", "result": "over 90%"}, {"measurement": "Protein binding", "setting": "[1]; human, in vivo", "result": "approximately 58%"}, {"measurement": "half-life", "setting": "[1]; human, in vivo", "result": "approximately 6 h"}, {"measurement": "MRT", "setting": "[2]; iv", "result": "6.67 ± 2.48", "unit": "h"}, {"measurement": "AUC", "setting": "[2]; iv, AUC", "result": 31000, "unit": "ng·h/mL"}, {"measurement": "MRT", "setting": "[2]; iv, MRT", "result": 7.03, "unit": "h"}, {"measurement": "half-life", "setting": "[2]; iv, Terminal half-life", "result": "5.23 ± 1.61", "unit": "h"}, {"measurement": "bioavailability", "setting": "in vivo", "result": 106, "unit": "%"}, {"measurement": "AUC", "setting": "in vivo; po, 20 mg/kg, AUC", "result": 65600, "unit": "ng·h/mL"}, {"measurement": "Cmax", "setting": "in vivo; po, 20 mg/kg, Cmax", "result": "7820 ± 1130", "unit": "ng/mL"}, {"measurement": "Tmax", "setting": "in vivo; po, 20 mg/kg", "result": 4.38, "unit": "h"}, {"measurement": "Manner of inhibition of tofacitinib metabolism by voriconazole", "setting": "[3]; rat intestinal microsomes", "result": "non-competitive manner"}, {"measurement": "Ki", "setting": "[3]; read-out: Apparent Ki of voriconazole for the inhibition of tofacitinib metabolism, intestinal microsomes, non-competitive model, n = 3", "result": "26.2 ± 8.05", "unit": "µM"}, {"measurement": "Type of inhibition of α-glycosidase", "setting": "α-glycosidase", "result": "non-competitive inhibition"}, {"measurement": "F", "setting": "[7]", "result": 122, "unit": "%"}, {"measurement": "Manner of inhibition of tofacitinib metabolism by voriconazole", "setting": "rat hepatic microsomes; Lineweaver–Burk and Dixon plots, rat hepatic microsomes", "result": "non-competitive manner"}, {"measurement": "Type of inhibition of human carbonic anhydrase 1", "setting": "[10]", "result": "non-competitive inhibition"}]}]}
